Measurements: US12589104B2, “Thiosaccharides for use in treating coronavirus infection” (priority 2020, dated 2026)
Structures can show the parent of a compound that is named as a salt.

Assays:
[1] = cited from earlier work
[2] = test system: SARS-CoV-2, isolate USA-WA1/2020; assay type: cell-based
[3] = test system: SARS CoV2 (isolate USA-WA1/2020); set-up: species or system Syrian hamsters (Mesocricetus auratus); conditions: hamster, in vivo
[4] = target: T1, SARS-CoV-2 RBD^original binding to ACE2 (Severe acute respiratory syndrome coronavirus 2, UniProt P0DTC2); conditions: for binding of RBD^original to ACE2 at one and two hours post exposure and wash: 5 mM drug for 1 hour, washed, ACE2 added after 60 or 120 minutes; for inhibition of binding of RBD^original to ACE2: RBD exposed to drug for 60 minutes, 0 to 20 mM
T1 construct: ACRO Biosystems); purchased ACRO Biosystems

[5] = test system: SARS-2-S pseudovirus; assay type: cell-based, SARS-CoV-2
[6] = target: T2, RBD of SARS-2-S binding to ACE2 (Severe acute respiratory syndrome coronavirus 2, UniProt P0DTC2); set-up: species or system SARS-CoV-2
T2 construct: Recombinantly expressed RBD of SARS-2-S was first immobilized to a surface

[7] = test system: VSV pseudotype bearing the SARS-2-S protein (VSV-S); assay type: cell-based, SARS-CoV-2
[8] = assay type: physicochemical; conditions: 11 mg/mL in vehicle, Aerogen Solo vibrating mesh nebulizer

For `NCCS` [Cysteamine], the “pKa (thiol group)” value [1] is given as 8.2, the “cytopathic effects in virus-infected cells, virus exposed to drug prior to infection” value [2] is given as “significantly inhibited” and the “interleukin-6 levels in lung lavage” value [3] is given as “lower than control”. For the same compound, the lung weights [3] was “lower than in control groups”, the “lymphocytes in BAL fluid” value [3] was “decreases” and the “neutrophils in BAL fluid” value [3] was “decreases”. For the same compound, the “total leukocyte counts in the bronchoalveolar lavage (BAL) fluid” value [3] was “lower than control”, the “binding of RBD^original to ACE2 at one and two hours post exposure and wash” value [4] was “binding inhibition was retained for two hours after drug removal” and the “inhibition of binding of RBD^original to ACE2” value (from here on “inhibition of binding … to ACE2”) [4] was “strong inhibitory effects”.
For `O=S(=O)(O)CCS` [MESNA, 2-Mercaptoethane sulfonate, sodium salt], the “antiviral efficacy in vitro compared to NAC” value [5] was “superior antiviral efficacy in vitro”, the “binding of RBD^original to ACE2 at one and two hours post exposure and wash” value [4] was “binding inhibition was retained for two hours after drug removal” and the “inhibition of binding … to ACE2” value [4] was “strong inhibitory effects”.
For `OC1C(O)[C@H](O)C(CS)O[C@@H]1O[C@H]1OC(CS)[C@@H](O)C(O)C1O` (stereo partly drawn) [MUC, 6,6′-dithiotrehalose], the “inhibition of binding of ACE2 to SARS-2-S” value [6] was “inhibited binding of ACE2 to SARS-2-S”, the “persistence of binding inhibition after drug is washed out” value [6] was “binding inhibition persists following drug contact” and the “potency in inhibiting ACE2 binding compared to NAC” value [6] was “stronger potency”. For the same compound, the “effectiveness for inhibiting viral entry compared to NAC” value [7] was “more effective than NAC”, the “inhibition of VSV-S cellular entry” value [7] was “inhibited VSV-S cellular entry” and the “inhibition of VSV-S entry” value [7] was “All three concentrations of MUC resulted in potent inhibition of VSV-S entry”.
In the case of `OC1C(O)[C@H](O)C(CS)O[C@@H]1O[C@@H]1OC(CS)[C@@H](O)C(O)C1O` (stereo partly drawn) [MUC-031, 6,6′-dithiotrehalose], the “average mass median aerodynamic diameter (MMAD) of the exposure atmosphere” value [8] is reported as 2.60 μm.
In the case of `CC(=O)N[C@@H](CS)C(=O)O` [NAC, N-acetyl-L-cysteine], the “inhibition of binding of ACE2 to SARS-2-S” value [6] is reported as “inhibited binding of ACE2 to SARS-2-S”, the “inhibition of VSV-S cellular entry” value [7] is reported as “inhibited VSV-S cellular entry” and the “inhibition of VSV-S entry” value [7] is reported as “only 5 and 25 mM of NAC resulted in significant cell entry inhibition”.
With `NCCCNCCS` [WR-1065] the “binding of RBD^original to ACE2 at one and two hours post exposure and wash” value [4] was “binding inhibition was retained for two hours after drug removal” and the “inhibition of binding … to ACE2” value [4] was “strong inhibitory effects”.
In the case of `NCCCNCCSP(=O)(O)O` [amifostine, Amifostine], the “pseudovirus cell entry after pretreatment of SARS-2-S pseudovirus with drug” value [5] is reported as “did not inhibit viral cell entry”.
For `N[C@@H](CSCC(=O)O)C(=O)O` [carbocysteine, Carbocysteine], the “cytopathic effects in virus-infected cells, virus exposed to drug prior to infection” value [2] was “significantly inhibited” and the “pseudovirus cell entry after pretreatment of SARS-2-S pseudovirus with drug” value [5] was “did not inhibit viral cell entry”.
